# Measured values reported in patent US7034035B2, “Fungicidal mono-, bi-, and tri-cycloheteroalkyl amides and their compositions, methods of use and preparation” (priority 1999, dated 2006).
# Read-outs that look alike come from different tables or passages of the source.
# Columns and labels:
# [1] = tested on: Leptosphaeria nodorum—LEPTNO; assay: Glume Blotch of Wheat, in vivo whole plant, 24 Hour Protectant; conditions: for pest or weed control at 100 ppm: Leptosphaeria, 24 h, read-out: LEPTNO in vivo 1 Day Protectant
# [2] = tested on: Puccinia recondita—PUCCRT; assay: Brown Rust of Wheat, in vivo whole plant, 24 Hour Protectant; conditions: inoculated after 24 hours; for pest or weed control at 100 ppm: Puccinia, read-out: PUCCRT in vivo 1 Day Protectant
# Erysiphe graminis—ERYSGT = assay: Powdery Mildew of Wheat, in vivo whole plant, 24 Hour Protectant; conditions: for ERYSGT in vivo 1 Day Protectant: inoculated after 24 hours; for pest or weed control at 100 ppm: Erysiphe, in Triticum aestivum, 24 h, read-out: ERYSGT in vivo 1 Day Protectant
# Septoria tritici—SEPTTR = assay: Leaf Blotch of Wheat, in vivo whole plant, 24 Hour Protectant; conditions: inoculated after 24 hours; for pest or weed control at 100 ppm: Zymoseptoria tritici, read-out: SEPTTR in vivo 1 Day Protectant
# [3] = tested on: Phytophthora infestans—PHYTIN; assay: whole plant or invertebrate; format: in vivo; conditions: for pest or weed control at 100 ppm: Phytophthora, in Solanum lycopersicum, 24 h, read-out: PHYTIN in vivo 1 Day Protectant; for PHYTIN in vivo 1 Day Protectant: tomato plants sprayed at 100 ppm, inoculated after 24 hours, control vs untreated plants
# [4] = tested on: Stagonospora nodorum (Leptosphaeria nodorum—LEPTNO); assay: Inhibition of in vitro fungal growth, LEPTNO; format: cell-based
# Ustilago maydis (USTIMA) = assay: microbe, parasite or virus in culture; format: cell-based
# [5] = tested on: Mycosphaerella graminicola (Septoria tritici—SEPTTR); assay: Inhibition of in vitro fungal growth, SEPTTR; format: cell-based
# [6] = tested on: Rhizoctonia solani (RHIZSO); assay: microbe, parasite or virus in culture; format: cell-based
# [7] = wheat (cultivar Yuma), sprayed at 100 ppm, inoculated after 24 hours, control of fungal infection vs untreated plants
# [8] = wheat (cultivar Yuma), sprayed at 100 ppm, control of fungal infection vs untreated plants
# [9] = wheat (cultivar Monon), sprayed at 100 ppm, control of fungal infection vs untreated plants
# [10] = wheat plants sprayed at 100 ppm, inoculated after 24 hours, control vs untreated plants
# [11] = wheat plants sprayed at 100 ppm, control vs untreated plants
smiles,measurement,setting,value
COc1ccnc(C(=O)N[C@H]2COC(=O)[C@H](Cc3ccccc3)[C@@H](OC(=O)Cc3ccccc3)[C@H](C)OC2=O)c1O [Compound 395],LEPTNO in vivo 1 Day Protectant,[1]; [7],+ (25-74% control of fungal infection)
same,PUCCRT in vivo 1 Day Protectant,[2]; [8],+ (25-74% control of fungal infection)
same,ERYSGT in vivo 1 Day Protectant,Erysiphe graminis—ERYSGT; [9],− (<25% control of fungal infection)
same,SEPTTR in vivo 1 Day Protectant,Septoria tritici—SEPTTR; [8],+ (25-74% control of fungal infection)
COc1ccnc(C(=O)NC2COC(=O)[C@H](Cc3ccccc3)[C@@H](OC(=O)C(C)C)[C@H](C)OC2=O)c1O (some centres unmarked) [Compound 475],pest or weed control at 100 ppm,[1]; [10],75 to 100%
same,pest or weed control at 100 ppm,[2]; [11],25 to 74%
same,pest or weed control at 100 ppm,Erysiphe graminis—ERYSGT,< 25%
same,pest or weed control at 100 ppm,[3],< 25%
same,pest or weed control at 100 ppm,Septoria tritici—SEPTTR; [11],25 to 74%
O=C(Nc1cccc(Oc2cccc(C(F)(F)F)c2)c1)c1nc(Br)ccc1O [Compound 496],LEPTNO in vivo 1 Day Protectant,[1]; [10],− (<25% control of fungal infection)
same,PUCCRT in vivo 1 Day Protectant,[2]; [11],+ (25-74% control of fungal infection)
same,pest or weed control at 100 ppm,Erysiphe graminis—ERYSGT,< 25%
same,PHYTIN in vivo 1 Day Protectant,[3],− (<25% control of fungal infection)
same,SEPTTR in vivo 1 Day Protectant,Septoria tritici—SEPTTR; [11],+ (25-74% control of fungal infection)
COc1ccnc(C(=O)N[C@H]2COC(=O)[C@H](Cc3ccccc3)[C@@H](OC(=O)CC(C)C)[C@H](C)OC2=O)c1O [Compound 390],pest or weed control at 100 ppm,[1]; [7],75 to 100%
same,pest or weed control at 100 ppm,[2]; [8],25 to 74%
same,pest or weed control at 100 ppm,Erysiphe graminis—ERYSGT,< 25%
same,pest or weed control at 100 ppm,[3],< 25%
same,pest or weed control at 100 ppm,Septoria tritici—SEPTTR; [8],25 to 74%
CC(C)C(=O)O[C@H]1[C@H](C)OC(=O)[C@@H](NC(=O)c2nsnc2O)COC(=O)[C@@H]1Cc1ccccc1 [Compound 553],pest or weed control at 100 ppm,[1]; [10],75 to 100%
same,pest or weed control at 100 ppm,[3],75 to 100%
CCC(C)C(=O)O[C@H]1[C@H](C)OC(=O)[C@@H](NC(=O)c2nccc(OC)c2O)COC(=O)[C@@H]1Cc1ccccc1 (some centres unmarked) [Compound 389],pest or weed control at 100 ppm,[1]; [7],75 to 100%
same,pest or weed control at 100 ppm,[2]; [8],25 to 74%
same,pest or weed control at 100 ppm,Erysiphe graminis—ERYSGT,< 25%
same,pest or weed control at 100 ppm,[3],< 25%
same,pest or weed control at 100 ppm,Septoria tritici—SEPTTR; [8],25 to 74%
COc1ccnc(C(=O)NC2CCN(Cc3cccc(C(F)(F)F)c3)CC2)c1O.O=C(O)/C=C\C(=O)O.O=C(O)/C=C\C(=O)O [Compound 307],LEPTNO in vitro Growth Inhibition,[4],− (key: +: at least 80% growth inhibition; −: less than 80% growth inhibition)
same,LEPTNO in vivo 1 Day Protectant,[1]; [7],− (<25% control of fungal infection)
same,USTIMA in vitro Growth Inhibition,Ustilago maydis (USTIMA),− (key: +: at least 80% growth inhibition; −: less than 80% growth inhibition)
same,PUCCRT in vivo 1 Day Protectant,[2]; [8],− (<25% control of fungal infection)
same,ERYSGT in vivo 1 Day Protectant,Erysiphe graminis—ERYSGT; [9],+ (25-74% control of fungal infection)
same,SEPTTR in vitro Growth Inhibition,[5],− (key: +: at least 80% growth inhibition; −: less than 80% growth inhibition)
same,RHIZSO in vitro Growth Inhibition,[6],− (key: +: at least 80% growth inhibition; −: less than 80% growth inhibition)
O=C(Nc1cccc(Oc2cccc(C(F)(F)F)c2)c1)c1nc(Br)ccc1O [Compound 497],LEPTNO in vivo 1 Day Protectant,[1]; [10],+ (25-74% control of fungal infection)
same,PUCCRT in vivo 1 Day Protectant,[2]; [11],+ (25-74% control of fungal infection)
same,ERYSGT in vivo 1 Day Protectant,Erysiphe graminis—ERYSGT; [11],− (<25% control of fungal infection)
same,PHYTIN in vivo 1 Day Protectant,[3],− (<25% control of fungal infection)
same,SEPTTR in vivo 1 Day Protectant,Septoria tritici—SEPTTR; [11],+ (25-74% control of fungal infection)
COC(=O)C(COC(=O)C(CO[Si](C)(C)C(C)(C)C)Cc1ccccc1)NC(=O)c1nccc(OC)c1O (centres unmarked) [Compound 350],pest or weed control at 100 ppm,[1]; [7],75 to 100%
same,pest or weed control at 100 ppm,[2]; [8],75 to 100%
same,pest or weed control at 100 ppm,Erysiphe graminis—ERYSGT,< 25%
same,pest or weed control at 100 ppm,[3],< 25%
same,pest or weed control at 100 ppm,Septoria tritici—SEPTTR; [8],< 25%
COc1ccnc(C(=O)N[C@@H]2C[C@@H](O[Si](C)(C)C(C)(C)C)O[C@@H](C)[C@@H]2OCc2ccccc2)c1O [Compound 327],LEPTNO in vitro Growth Inhibition,[4],− (key: +: at least 80% growth inhibition; −: less than 80% growth inhibition)
same,USTIMA in vitro Growth Inhibition,Ustilago maydis (USTIMA),− (key: +: at least 80% growth inhibition; −: less than 80% growth inhibition)
same,SEPTTR in vitro Growth Inhibition,[5],− (key: +: at least 80% growth inhibition; −: less than 80% growth inhibition)
same,RHIZSO in vitro Growth Inhibition,[6],− (key: +: at least 80% growth inhibition; −: less than 80% growth inhibition)
same,pest or weed control at 100 ppm,Septoria tritici—SEPTTR; [8],75 to 100%
COc1ccnc(C(=O)N[C@H]2COC(=O)[C@H](CC3CCCC3)[C@@H](OC(=O)C(C)C)[C@H](C)OC2=O)c1O [Compound 402],pest or weed control at 100 ppm,[1]; [7],75 to 100%
same,pest or weed control at 100 ppm,Erysiphe graminis—ERYSGT,75 to 100%
COc1ccnc(C(=O)N[C@@H]2C[C@@H](O[Si](C)(C)C(C)(C)C)O[C@@H](C)[C@@H]2OC)c1O [Compound 326],LEPTNO in vitro Growth Inhibition,[4],− (key: +: at least 80% growth inhibition; −: less than 80% growth inhibition)
same,USTIMA in vitro Growth Inhibition,Ustilago maydis (USTIMA),− (key: +: at least 80% growth inhibition; −: less than 80% growth inhibition)
same,SEPTTR in vitro Growth Inhibition,[5],− (key: +: at least 80% growth inhibition; −: less than 80% growth inhibition)
same,RHIZSO in vitro Growth Inhibition,[6],− (key: +: at least 80% growth inhibition; −: less than 80% growth inhibition)
same,pest or weed control at 100 ppm,Septoria tritici—SEPTTR; [8],75 to 100%
CCCC[C@H]1C(=O)O[C@H](C)C(NC(=O)c2cccc(NC(=O)c3nccc(OC)c3O)c2O)C(=O)O[C@@H](C)[C@@H]1OC(=O)CC(C)C (some centres unmarked) [Compound 473],pest or weed control at 100 ppm,[1],75 to 100%
same,PUCCRT in vivo 1 Day Protectant,[2]; [11],+ (25-74% control of fungal infection)
same,ERYSGT in vivo 1 Day Protectant,Erysiphe graminis—ERYSGT; [11],− (<25% control of fungal infection)
same,SEPTTR in vivo 1 Day Protectant,Septoria tritici—SEPTTR; [11],+ (25-74% control of fungal infection)
COc1ccnc(C(=O)N[C@@H](Cc2ccc(OCc3ccccc3)cc2)C(=O)OCc2ccccc2)c1O [Compound 339],pest or weed control at 100 ppm,[1]; [7],75 to 100%
same,USTIMA in vitro Growth Inhibition,Ustilago maydis (USTIMA),− (key: +: at least 80% growth inhibition; −: less than 80% growth inhibition)
same,pest or weed control at 100 ppm,[2]; [8],75 to 100%
same,RHIZSO in vitro Growth Inhibition,[6],− (key: +: at least 80% growth inhibition; −: less than 80% growth inhibition)
same,pest or weed control at 100 ppm,Septoria tritici—SEPTTR; [8],75 to 100%
COc1ccnc(C(=O)N[C@H]2C[C@@H](O[Si](C)(C)C(C)(C)C)O[C@@H](C)[C@@H]2OCc2ccccc2)c1O [Compound 328],LEPTNO in vitro Growth Inhibition,[4],− (key: +: at least 80% growth inhibition; −: less than 80% growth inhibition)
same,USTIMA in vitro Growth Inhibition,Ustilago maydis (USTIMA),− (key: +: at least 80% growth inhibition; −: less than 80% growth inhibition)
same,SEPTTR in vitro Growth Inhibition,[5],− (key: +: at least 80% growth inhibition; −: less than 80% growth inhibition)
same,RHIZSO in vitro Growth Inhibition,[6],− (key: +: at least 80% growth inhibition; −: less than 80% growth inhibition)
COc1ccnc(C(=O)N[C@H]2COC(=O)[C@H](Cc3ccccc3)[C@@H](OCC(C)C)[C@H](C)OC2=O)c1O [Compound 384],pest or weed control at 100 ppm,[1]; [7],75 to 100%
same,pest or weed control at 100 ppm,Erysiphe graminis—ERYSGT,75 to 100%
COc1cccc(Oc2ccc(NC(=O)c3nccc(OC)c3O)cc2)c1 [Compound 435],LEPTNO in vivo 1 Day Protectant,[1]; [7],+ (25-74% control of fungal infection)
same,PUCCRT in vivo 1 Day Protectant,[2]; [8],− (<25% control of fungal infection)
same,pest or weed control at 100 ppm,Erysiphe graminis—ERYSGT,< 25%
same,SEPTTR in vivo 1 Day Protectant,Septoria tritici—SEPTTR; [8],− (<25% control of fungal infection)
